Measurements taken from patent publication US4125531A, “2-Substituted-1-azabicyclo[2.2.2]octanes” (G. D. Searle & Co., priority 1977, dated 1978).
Where a name gives a salt, the structure may show the parent alone. Read-outs that look alike come from different tables or passages of the source.

How the values were obtained:
[1] = test system: castor oil-induced diarrhea; assay: Castor Oil-Induced Diarrhea in the Rat; format: in vivo, rat (adult Charles River male rats); conditions: po, read-out: ED50 ± S.E. (median effective dose) at 2 hours past castor oil administration
Experimental: Castor Oil-Induced Diarrhea in the Rat
Adult Charles River male rats are fasted in community cages for 24 hours prior to the test, with free access to water. The test compound is then administered intragastrically (suspended on 0.5% methyl cellulose) one hour prior to the intragastric adminstration of a dose of 1.0 ml. castor oil per rat. The rats are then observed for the presence or absence of diarrhea at hourly intervals for up to 8 hours past the castor oil adminstration. Using the method of Berkson (1953), the median effective dose (ED50) values are calculated at each hourly interval for the test compound.
The median effective dose at 2 hours past the castor oil adminstration for the following representative compounds of the present invention in the castor oil-induced diarrhea in the Rat test are: […]

[2] = test system: gastronintestinal motility; assay: Mouse Cecal Test (inhibition of gastrointestinal motility, charcoal in cecum); format: in vivo, mouse (male Charles River mice); conditions: po, read-out: ED50 ± S.E. (median effective dose), Mouse Cecal Test
Excerpt: The compounds of the present invention are useful in consequence of their valuable pharmacological properties. They are, for example, potent anti-diarrheal agents as evidenced by their ability to inhibit gastronintestinal motility as set out in the following tests:
The method used for this assay is a modification of the techniques previously described by Macht and BarbaGose, J. Amer. Pharm. Ass., 20, 558 (1931), and Janssen and Jageneau, J. Pharm. Pharmacol., 9, 381 (1957). Details are as follows:
A group of six, male Charles River mice weighing 20-25 g. which have been previously fasted for 24 hours are pretreated with the test compounds administered orally as a solution in water or suspended in 0.5% methyl cellulose. A constant volume of 10 ml./kg. is employed. Thirty minutes following administration of the test compounds, the animals are given a single oral dose of charcoal which consists of 0.2 ml. per mouse of 10% charcoal suspended in 1.0% methyl cellulose. Three and a half hours after charcoal administration, the animals are sacrificed and the cecum examined for the absence or presence of charcoal on an all-or-none basis.
The median effective dose (ED50) is then calculated for each compound using the logistic method of Berkson (1953).
The median effective dose ± standard Error ED50 ± SE) for the following representative compounds of the present invention in the Mouse Cecal Test are […]

[3] = IG, test compound one hour before 1.0 ml castor oil, 2 hours past castor oil
[4] = IG, test compound 30 minutes before charcoal, cecum examined 3.5 hours after charcoal

C=CCC(CC1CC2CCN1CC2)(c1ccccc1)c1ccccc1 (centres unmarked) [2-(2,2-diphenyl-4-pentenyl)-1-azabicyclo[2.2.2]octane]
ED50 [1, 3]: 1.13 ± 0.18 mg/kg
ED50 [2, 4]: 1.82 ± 0.45 mg/kg

CCCCCC(CC1CC2CCN1CC2)(c1ccccc1)c1ccccc1.O=C(O)/C=C\C(=O)O (centres unmarked) [2-(2,2-diphenylheptyl)-1-azabicyclo[2.2.2]octane maleate]
ED50 ([1]; 2 h): 10.2 ± 1.43 mg/kg
ED50 [2]: 5.84 ± 1.94 mg/kg

CCCCC(CC1CC2CCN1CC2)(c1ccccc1)c1ccccc1 (centres unmarked) [2-(2,2-diphenylhexyl)-1-azabicyclo[2.2.2]octane]
ED50 [1, 3]: 4.57 ± 0.21 mg/kg
ED50 [2, 4]: 8.74 ± 3.95 mg/kg

CCCCCCC(CC1CC2CCN1CC2)(c1ccccc1)c1ccccc1.O=C(O)/C=C\C(=O)O (centres unmarked) [2-(2,2-diphenyloctyl)-1-azabicyclo[2.2.2]octane maleate]
ED50 [2]: 20.7 ± 12.3 mg/kg

CC(CC1CC2CCN1CC2)(c1ccccc1)c1ccccc1 (centres unmarked) [2-(2,2-diphenylpropyl)-1-azabicyclo[2.2.2]octane]
ED50 [2, 4]: 43.1 ± 15.5 mg/kg

CC(C)=CCC(CC1CC2CCN1CC2)(c1ccccc1)c1ccccc1 (centres unmarked) [2-(5-methyl-2,2-diphenylhex-4-enyl)-1-azabicyclo[2.2.2]octane]
ED50 [1, 3]: 1.74 ± 0.53 mg/kg
ED50 [2, 4]: 1.45 ± 0.66 mg/kg

CCOC(=O)C1(c2ccccc2)CCN(CCC(C#N)(c2ccccc2)c2ccccc2)CC1 [Diphenoxylate . HCl, reference compound]
ED50 [2]: 3.12 ± 1.29 mg/kg
